Results as given in PMC10724190, “Phytochemical screening and biological evaluation of Greek sage (Salvia fruticosa Mill.) extracts” (Scientific Reports, 2023).

Assays:
[1] = molecular target: microbial XO (xanthine oxidase); assay: Xanthine oxidase inhibitory activity, HPLC-PAD monitoring of uric acid formation; type: biochemical; conditions: for IC50, mass of standard or dry weight of sample capable of reducing XO activity to 50%: 15 min preincubation, 60 min at 25 °C, xanthine substrate; for IC50: read-out: IC50 of XO inhibition as concentration
Experimental: The transformation of xanthine (substrate) to uric acid (product) by XO with or without the presence of tested samples was monitored with the use of HPLC-PAD at 285 nm (Fig. 3a). The enzyme activity was calculated as the percentage of the uric acid peak area formed in the presence of the tested sample compared to the control without the addition of the sample (Fig. 3b). The inhibition of the XO enzyme was expressed as an IC50 value, meaning the mass of standard or dry weight of sample (μg) capable of reducing enzyme activity to 50% (Fig. 3b,c).
The ability of – caffeic acid, carnosic acid, carnosol, rosmarinic acid, salvianolic acid B and scutellarin, as well as S. fruticosa extracts – to inhibit XO was determined. The stock solutions of xanthine (substrate) and uric acid (product) (1.5 mM) were prepared in an NaOH aqueous solution (1 M). The working solutions of these compounds (150 μM) were prepared by dilution of stock solutions with a phosphate buffer (10 mM, pH 7.7). An enzyme solution with an activity of approximately 0.5 U/mL was prepared in the same phosphate buffer. The same buffer was also used to dilute stock solutions of phytochemical standards and S. fruticosa extracts. The diluted samples with different concentrations of standard or plant extract (85 µL) were mixed with an XO solution (30 µL) and preincubated for 15 min at 25 °C, followed by the addition of 60 µL of a 150 µM xanthine solution (substrate). The mixtures were incubated for 60 min at 25 °C, then 25 µL of HCl solution (1 M) was added to stop the enzymatic reaction.
The samples were analyzed using an HPLC-PAD system (1200 series, Agilent Technologies, Wilmington, DE, USA) equipped with a Kinetex® column (150 × 4.6 mm, 5 µm, Phenomenex). A two-component mobile phase was used, in which component A was water acidified with formic acid (1%) and component B was methanol. The mobile phase was pumped at flow rate of 1 mL/min according to the gradient elution program: 0 min – 100% A, 8 min – 18% B, 12 min – 80% B, 18 min – 100% B and finally, the initial conditions were held for 5 min as a re-equilibration step. The injection volume was 30 μL. The inhibition of the XO enzyme was expressed as an IC50 value, meaning the mass of standard or dry weight of the sample (μg) that could reduce enzyme activity to 50%. Enzyme activity was calculated as the percentage of the uric acid peak area (RT 3.1 min) that was formed in the presence of extracts compared to the control sample without the addition of extracts.

[2] = Total antioxidant activity, ABTS, DPPH and F–C tests taken together; conditions: reference antioxidant trolox
Experimental: The presented study compared the results of the three most popular spectrophotometric tests using ABTS, DPPH and Folin–Ciocalteu (F–C) reagents. ABTS and DPPH assays are used widely to determine free radical scavenging activity of extracts, as are pure compounds. For S. fruticosa extracts, the calculated antioxidant activity describes the number of ABTS or DPPH molecules reduced by antioxidants derived from 1 g of dried material after 10 min of reaction. These values were calculated in the linear range of the method and expressed as the slope of the line describing the relationship between the number of reduced millimoles of oxidants and various amounts of tested samples – as grams of dry matter in reaction mixtures (Fig. 2b).
The study also includes the method with the Folin–Ciocalteu reagent. It consists in the transfer of electrons in an alkaline environment from compounds with active hydroxyl groups to phosphomolybdic phosphotungstic acid complexes. The reducing capacity in this case was expressed as the number of millimoles of gallic acid equivalents, that formed blue complex and were derived from 1 g of dry matter of the plant. […]
The antioxidant activity of – caffeic acid, carnosic acid, carnosol, rosmarinic acid, salvianolic acid B, scutellarin and S. fruticosa extracts – was determined by spectrophotometric tests using ABTS, DPPH and Folin–Ciocalteu (F–C) reagents. […] For tests with radicals, the data were used to generate a plot of linear dependence between the different content of tested standards or S. fruticosa samples calculated as gram of dry weight present in the reaction mixtures and the number of scavenged millimoles of ABTS or DPPH radical. […] For the F–C test the results were calculated using the calibration curve of gallic acid. The antioxidant activity of the tested samples was expressed as a slope of the line that represents the relationship between the mass of standards or plant material [g] and amount of gallic acid equivalents [mmol] present in reaction mixtures after 60 min.

| IC50 [1] [µM] | Molecule | IC50, mass of standard or dry weight of sample capable of reducing XO activity to 50% [1] [µg] | Antioxidant activity compared with trolox [2] |
| --- | --- | --- | --- |
| 2.8 | O=C(O)/C=C/c1ccc(O)c(O)c1 [Caffeic acid] | 0.1 | more efficient than trolox |
| 43.8 | O=C(/C=C/c1ccc(O)c(O)c1)O[C@H](Cc1ccc(O)c(O)c1)C(=O)O [rosmarinic acid, Rosmarinic acid] |  | more efficient than trolox |
|  | Salvianolic acid B |  | more efficient than trolox |

| Molecule | IC50 [1] [µM] | IC50, mass of standard or dry weight of sample capable of reducing XO activity to 50% [1] [µg] | Antioxidant activity compared with trolox [2] |
| --- | --- | --- | --- |
| Oc1ncnc2[nH]ncc12 [allopurinol] | 5.5 | 0.15 |  |
